Data from ChEMBL document CHEMBL6177972 (J Nat Prod, 2025).

Experiments:
Assay type in all cases: functional, cell-based
[1] = Anticancer activity against human MM649 cells assessed as cell growth inhibition incubated for 4 days by MTT assay; conditions: MM649, 96 h
K562 = assay: Anticancer activity against human K562 cells assessed as cell growth inhibition incubated for 4 days by MTT assay; conditions: K562, 96 h
HeLa = assay: Anticancer activity against human HeLa cells assessed as cell growth inhibition incubated for 4 days by MTT assay; conditions: 96 h

| Structure (SMILES) | IC50 [1] [µM] | IC50 (K562) [µM] | IC50 (HeLa) [µM] |
| --- | --- | --- | --- |
| CCCCCCCCCCCCC[C@H]1CC(=O)C[C@@]2(C[C@@H]3OC(=O)C=C[C@@H]3O2)O1 | 3.1 | 11.9 | 3.9 |
| CC(=O)O[C@H]1C[C@H](C[C@@H](O)CCCCCCCCc2ccc3c(c2)OCO3)O[C@@]2(C1)C[C@@H]1OC(=O)C=C[C@@H]1O2 | 24.5 | 39.6 | 27.1 |
| O=C1C[C@H](CCCCCCCCc2ccc3c(c2)OCO3)O[C@@]2(C1)C[C@@H]1OC(=O)C=C[C@@H]1O2 | 5.9 | 16.6 | 5.9 |
| O=C1C=C[C@H](O)[C@H](CCCCCCCCc2ccc3c(c2)OCO3)O1 | 7.6 | 13.6 | 5.6 |
| CCCCCCCCCCCCC[C@H]1C[C@H](O)C[C@@]2(C[C@@H]3OC(=O)C=C[C@@H]3O2)O1 | 2.7 | 15.6 | 4.2 |
| O=C1C=C[C@@H]2O[C@]3(C[C@@H](O)C[C@H](CCCCCCCCc4ccc5c(c4)OCO5)O3)C[C@@H]2O1 | 10.8 | 25.1 | 13.6 |
| O=C1C=C[C@@H]2O[C@]3(C[C@@H](O)C[C@H](C[C@@H](O)CCCCCCCCc4ccc5c(c4)OCO5)O3)C[C@@H]2O1 | 14.9 | 25.8 | 18.1 |
| CCCCCCCCCCCCC[C@H]1C[C@H](OC(C)=O)C[C@@]2(C[C@@H]3OC(=O)C=C[C@@H]3O2)O1 | 1.9 | 10.5 | 2.3 |
| CC(=O)O[C@H]1C[C@H](CCCCCCCCc2ccc3c(c2)OCO3)O[C@@]2(C1)C[C@@H]1OC(=O)C=C[C@@H]1O2 | 3.9 | 13.5 | 4.5 |
| CCCCCCCCCCCCC[C@H](O)C[C@H]1C[C@H](O)C[C@@]2(C[C@@H]3OC(=O)C=C[C@@H]3O2)O1 | 3.3 | 20.3 | 5.1 |
| COc1cccc2c1C(=O)c1c(O)c3c(c(O)c1C2=O)C[C@@](O)(C(=O)CO)C[C@@H]3O[C@H]1C[C@H](N)[C@H](O)[C@H](C)O1 [DOXORUBICIN] | 0.05 | 0.12 | – |
